According to patent US20250304623A1, “PEPTIDES FOR INTRACELLULAR DELIVERY” (UNIVERSIDADE DE SANTIAGO DE COMPOSTELA, priority 2022, published 2025):
*: point of attachment. NHNH2 = NN*

Tests used:
Format in all cases: cell-based
[1] = tested on: HCT116 cells expressing EGFP; assay: EGFP-targeting siRNA delivery (GFP silencing vs siMOCK), HCT116
Protocol: To generate an EGFP expressing HeLa cell line, HeLa cells were transfected with EGFP pDNA (pEGFP-C1, Clontech) and stable transfectants were selected with 400 μg/mL of G-418 (Millipore). Green clones were selected by epifluorescence microscopy and tested for EGFP expression stability through several passages. […] All other EGFP-expressing cell lines were obtained in a similar way from parent non-EGFP-expressing cell lines.
Cells expressing EGFP were seeded in a 96 well plate the day before the experiment at a concentration of 50,000 cell/mL (100 μL/w) in DMEM+10% FBS+1% Gln-Abt. For robotic library screening, the delivery of an EGFP-targeting siRNA (EGFP: enhanced green fluorescent protein, Ambion® Silencer® GFP Positive Control siRNA (siGFP) (AM4626)) in six different cell lines expressing EGFP was performed. Amphiphilic molecules stock solutions in DMSO were diluted with DMEM and freshly mixed with siRNA stock solutions in DMEM prior to transfection experiments, to afford several complexes at different amphiphile concentration (2-10 μM) while maintaining a constant final siRNA concentration of 30 nM. The mixture was shaken for 30 min at room temperature (rt) before the addition to the cells. The cell medium was aspirated, and cells were washed twice with PBS. Finally, 50 μL of the solution of siRNA/amphiphile complexes were added to the cells and incubated for 4 h. After transfection, the medium was replaced by 100 μL of fresh DMEM supplemented with 10% FBS. The fluorescence knockdown was quantified after 72 h in a plate reader, by comparison with cells transfected with a non-targeting siRNA control (siMOCK, Silencer™ Negative Control No. 1 siRNA (siMOCK) (AM4611)). EGFP knockdown was compared with Lipofectamine® RNAiMAX silencing efficiency (30-60% depending on cell line, defined with a numeric value in the below tables). All experiments were done in triplicate.
Tables 1-7: RLuc (pDNA) or EGFP (mRNA) expression levels were normalized to Lipofectamine reagents (value=1) and expressed as fold-times signal increase. In the case of siRNA, the siRNA treated cells fluorescence was compared with siMOCK control fluorescence, while Cas9-RNP mediated knockout was measured against the fluorescence of untreated cells. In both siRNA and Cas9-RNP, values are expressed as % fluorescence reduction. Amphiphile concentration was 5 μM in all cases. All experiments were performed in triplicate.
Tables 20-25 show the mean (triplicates) percentage of GFP-silencing, accounted by fluorescence intensity decrease relative to a non-targeting siRNA (siMOCK) control, measured after the transfection of siRNA by different amphiphiles at different concentrations in a variety of cell lines. Background values, accounted by untreated control cells, were subtracted for processing.

HCT116 cells = assay: RLuc pDNA delivery, robotic library screening, HCT116
HepG2 cells = assay: EGFP mRNA delivery, robotic library screening, HepG2; settings: HepG2 cells
Method in brief: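 This robotic library screen tested delivery of CleanCap EGFP mRNA (5moU) into HepG2 cells using amphiphilic molecules. Complexes were freshly prepared at room temperature and added to the cells, and the medium was then replaced with fresh DMEM plus 10% FBS. Total EGFP fluorescence was measured in a plate reader at 72 h in triplicate, with untreated-cell background subtracted.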

Substance | percentage of GFP-silencing relative to siMOCK ([1]; Dodecanal, 5 μM) [%] | percentage of GFP-silencing relative to siMOCK ([1]; Dodecanal, 10 μM) [%] | percentage of GFP-silencing relative to siMOCK ([1]; Dodecanal, 15 μM) [%] | percentage of GFP-silencing relative to siMOCK ([1]; Palmitoleyl, 10 μM) [%] | percentage of GFP-silencing relative to siMOCK ([1]; Petroselinyl, 5 μM) [%] | mean luminescent intensity (RLuc pDNA) (HCT116 cells; Myristoleyl, 5 μM) [RLU] | mean luminescent intensity (RLuc pDNA) (HCT116 cells; Myristoleyl, 15 μM) [RLU] | mean luminescent intensity (RLuc pDNA) (HCT116 cells; Palmitoleyl, 5 μM) [RLU] | mean luminescent intensity (RLuc pDNA) (HCT116 cells; Petroselinyl, 5 μM) [RLU] | mean luminescent intensity (RLuc pDNA) (HCT116 cells; Petroselinyl, 10 μM) [RLU] | mean luminescent intensity (RLuc pDNA) (HCT116 cells; Petroselinyl, 15 μM) [RLU] | mean fluorescence intensity after transfection of EGFP mRNA (HepG2 cells; Myristoleyl, 5 μM) | mean fluorescence intensity after transfection of EGFP mRNA (HepG2 cells; Myristoleyl, 15 μM) | mean fluorescence intensity after transfection of EGFP mRNA (HepG2 cells; Palmitoleyl, 5 μM) | mean fluorescence intensity after transfection of EGFP mRNA (HepG2 cells; Palmitoleyl, 10 μM) | mean fluorescence intensity after transfection of EGFP mRNA (HepG2 cells; Palmitoleyl, 15 μM) | percentage of GFP-silencing relative to siMOCK ([1]; Oleyl, 10 μM) [%] | percentage of GFP-silencing relative to siMOCK ([1]; Oleyl, 15 μM) [%] | mean luminescent intensity (RLuc pDNA) (HCT116 cells; Oleyl, 15 μM) [RLU] | mean fluorescence intensity after transfection of EGFP mRNA (HepG2 cells; Oleyl, 5 μM) | further results
Ac-RRHK*RLK*RRLK*RL-NH2 (Ac-RRHK(NHNH2)RLK(NHNH2)RRLK(NHNH2)RL-NH2; not fully specified; printed as Ac-RRHK*RLK*RRLK*RL-NH2; also: K*4,K*7,K*11: native or modified lysine (ε-amide to a linker)) [13(Leu-His)] | 43 | 43 | 40 | 49 | 47 | 76409 | 429 | 123206 | 116309 | 33439 | 4972 | 2950 | 308 | 1636 | 574 | −350 |  |  |  |  | percentage of GFP-silencing relative to siMOCK ([1]; Palmitoleyl, 5 μM): 43%; percentage of GFP-silencing relative to siMOCK ([1]; Petroselinyl, 10 μM): 29%
Ac-RRLK*RLK*RRLK*RL-NH2 [Peptide 13.3] | 45 |  | 31 | 31 | 1 | 51434 | 3431 | 142094 | 14318 | 99695 | 36052 |  |  | 689 | 986 | 974 | 46 | 14 | 1949 | 1087 | percentage of GFP-silencing relative to siMOCK ([1]; Myristoleyl, 15 μM): −5%; percentage of GFP-silencing relative to siMOCK ([1]; Oleyl, 5 μM): 55%; percentage of GFP-silencing relative to siMOCK ([1]; Palmitoleyl, 15 μM): 28%; mean luminescent intensity (RLuc pDNA) (HCT116 cells; Dodecanal, 5 μM): 60338 RLU; mean luminescent intensity (RLuc pDNA) (HCT116 cells; Dodecanal, 10 μM): 4741 RLU; mean luminescent intensity (RLuc pDNA) (HCT116 cells; Myristoleyl, 10 μM): 32315 RLU; mean luminescent intensity (RLuc pDNA) (HCT116 cells; Palmitoleyl, 15 μM): 17328 RLU; mean fluorescence intensity after transfection of EGFP mRNA (HepG2 cells; Dodecanal, 10 μM): 674; mean fluorescence intensity after transfection of EGFP mRNA (HepG2 cells; Dodecanal, 15 μM): 606; mean fluorescence intensity after transfection of EGFP mRNA (HepG2 cells; Petroselinyl, 10 μM): 1128; mean fluorescence intensity after transfection of EGFP mRNA (HepG2 cells; Petroselinyl, 15 μM): 967
Ac-RRLK*RLLRRLK*RL-NH2 (Ac-RRLK(NHNH2)RLLRRLK(NHNH2)RL-NH2; not fully specified; printed as Ac-RRLK*RLLRRLK*RL-NH2; also: K*4,K*11: native or modified lysine (ε-amide to a linker)) [Peptide 13.2] | 25 | 41 | 18 |  |  |  |  |  |  |  |  |  |  |  |  |  | 43 | 10 | 1593 | 612 | percentage of GFP-silencing relative to siMOCK ([1]; Oleyl, 5 μM): 45%; mean luminescent intensity (RLuc pDNA) (HCT116 cells; Oleyl, 5 μM): 15723 RLU; mean luminescent intensity (RLuc pDNA) (HCT116 cells; Oleyl, 10 μM): 2338 RLU
Ac-RRLK*RLLRRLK*RLK*RRL-NH2 (Ac-RRLK(NHNH2)RLLRRLK(NHNH2)RLK(NHNH2)RRL-NH2; not fully specified; printed as Ac-RRLK*RLLRRLK*RLK*RRL-NH2; also: K*4,K*11,K*14: native or modified lysine (ε-amide to a linker)) [Peptide 17.3] |  |  |  |  |  | 7561 |  | 14037 | 46486 | 11022 | 1651 | 39022 | −417 | 63064 | 7710 | 356 | 44 | 64 | 1957 | 6483 | percentage of GFP-silencing relative to siMOCK ([1]; Myristoleyl, 15 μM): 78%; percentage of GFP-silencing relative to siMOCK ([1]; Petroselinyl, 15 μM): 66%; mean luminescent intensity (RLuc pDNA) (HCT116 cells; Dodecanal, 10 μM): 1102 RLU; mean luminescent intensity (RLuc pDNA) (HCT116 cells; Myristoleyl, 10 μM): −331 RLU; mean luminescent intensity (RLuc pDNA) (HCT116 cells; Oleyl, 10 μM): 1799 RLU; mean luminescent intensity (RLuc pDNA) (HCT116 cells; Palmitoleyl, 10 μM): 5954 RLU; mean luminescent intensity (RLuc pDNA) (HCT116 cells; Palmitoleyl, 15 μM): 892 RLU; mean fluorescence intensity after transfection of EGFP mRNA (HepG2 cells; Dodecanal, 5 μM): 32417; mean fluorescence intensity after transfection of EGFP mRNA (HepG2 cells; Dodecanal, 10 μM): 2293; mean fluorescence intensity after transfection of EGFP mRNA (HepG2 cells; Myristoleyl, 10 μM): 251; mean fluorescence intensity after transfection of EGFP mRNA (HepG2 cells; Petroselinyl, 5 μM): 56287; mean fluorescence intensity after transfection of EGFP mRNA (HepG2 cells; Petroselinyl, 10 μM): 5790; mean fluorescence intensity after transfection of EGFP mRNA (HepG2 cells; Petroselinyl, 15 μM): 157
